Source: US4172118A, “Diphenylamine containing therapeutic composition and its applications, particularly in veterinary medicine” (METABIO, priority 1976, dated 1979)

How the values were obtained:
[1] = Acute toxicity of bithionol sulfoxide with/without diphenylamine in mice (death rate); assay type: in vivo, mice (male); conditions: mouse, in vivo, 7 days
Description: (§1) The acute toxicity of bithionol sulfoxide was compared with that of a combination of 20 parts bithionol sulfoxide per part diphenylamine.
(§2) Ten groups of 10 male mice each were used for this test. Five reference groups were administered increasing dosages of bithionol sulfoxide alone. The five other groups were administered the bithionol sulfoxide+diphenylamine combination. The test materials were administered orally.
(§3) The data relating to the death rate variations in both groups, with respect to the dosages of product used, are set forth in the following Table.

[2] = test system: serum glutamic oxalacetic transaminase (S.G.O.T.); experiment: Carbon tetrachloride intoxication in ewes, S.G.O.T. level; assay type: in vivo, Ile-de-France ewes; conditions: CCl4 3600 mg/kg sub-cutaneous
Description: 4. Two groups of non-pregnant Ile-de-France ewes, weighing from 46 to 68 kg, were intoxicated with carbon tetrachloride administered sub-cutaneously at a dosage of 3600 mg/kg, as a suspension in vaseline oil.
The second group alone was simultaneously administered diphenylamine at a dosage of 100 mg/kg.
The criterion used to evaluate the magnitude of the intoxication was the variation of the serum glutamic oxalacetic transaminase (S.G.O.T.) level.
In the following Table, the percent increase of said serum levels is given with respect to the level determined prior to the intoxication.

liver = experiment: Pentobarbital-induced sleeping test in mice (hepato-toxicity of carbon tetrachloride); assay type: in vivo; conditions: CCl4 0.075 ml/kg; protected group with diphenylamine 4 mg/kg; reference group 20 mn
Description: 3. […] This test provides a measure of the capability of the liver to metabolize some toxic materials. The principle is as follows: in normal mice, a certain sleeping time is induced by a certain dosage of pentobarbital; in mice which have been administered 48 hours previously a hepato-toxic material, the same pentobarbital dosage induces a longer sleeping time, because the injured liver has greater difficulty in metabolizing pentobarbital; on administration of a supposedly detoxicant material 24 hours after the toxic material, one may examine whether sleeping time is reduced or not and, thus, may quantify the resulting protection.
This test is effected using carbon tetrachloride as toxicant at a dosage of 0.075 ml/kg, and diphenylamine as protective material at a dosage of 4 mg/kg.

sheep = experiment: Hexachlorophene oral intoxication in sheep with/without diphenylamine (deaths); assay type: in vivo; conditions: for Number of sheep killed: of 5 sheep
Description: 7. Six groups of 5 sheep each were orally intoxicated with increasing dosages of hexachlorophene (135-142.5-150 mg/kg) with or without diphenylamine.

[3] = Acute toxicity of hexachlorophene with/without diphenylamine in mice (death rate); assay type: in vivo, mice (male); conditions: mouse, in vivo, 7 days, combination: diphenylamine 1.5 mg/kg oral one-half hour prior
Description: (§4) Acute toxicity tests were conducted in mice. The death rate noted in mice administered hexachlorophene alone was compared with that noted in mice which were administered the same dosages of hexachlorophene, but which had previously been protected by administration of diphenylamine.
(§5) Ten groups of 10 male mice each were used in such experiments. Five reference groups were given hexachlorophene alone, at increasing dosages. The five other groups were administered diphenylamine at a dosage of 1.5 mg/kg one-half hour prior to administration of the same hexachlorophene dosages as the reference animals. Both compounds were administered orally, using peanut oil as the excipient.
(§6) The data relating to the death rate variations in both groups, with respect to the dosages of compound used, are set forth in the following Table.

Limousin ewes = experiment: Hexachlorophene intoxication in ewes, clinical signs and weight; assay type: in vivo
Description: 5. Two groups of non-pregnant Limousin ewes, weighing from 45 to 52 kg, were intoxicated with hexachlorophene at a dosage of 90 mg/kg, administered orally; whereas the generally used therapeutic dosage is 10 mg/kg.
The clinical signs, and particularly the variation of the weight curve, were noted over a 5 day period of time.
One of the groups was simultaneously administered 2 mg/kg diphenylamine, by the same route of administration.

[4] = C.A., Vol. 54 17708g; cited from earlier work
myases = conditions: in animals; Merck Index, 8th Ed., p. 387; cited from earlier work
[5] = C.A., Vol. 50-15949d; cited from earlier work
Nematodes = conditions: in dogs; C.A., Vol. 35, 197, 9; cited from earlier work
mice [6] = experiment: Acute toxicity of bithionol sulfoxide with/without diphenylamine in mice (death rate); assay type: in vivo, mice (male); conditions: mice, oral; conclusion in words
Description: as §1, §2, §3

mice [7] = experiment: Acute toxicity of hexachlorophene with/without diphenylamine in mice (death rate); assay type: in vivo, mice (male); conditions: mice, oral; conclusion in words
Description: as §4, §5, §6

[8] = hexachlorophene 90 mg/kg oral, 5 days, protected group with diphenylamine 2 mg/kg oral

What does the source list for `[O-][S+](c1cc(Cl)cc(Cl)c1O)c1cc(Cl)cc(Cl)c1O` [bithionol sulfoxide]?
mortality at 168 h ([1]; bithionol sulfoxide 450 mg/kg oral, Group II with diphenylamine 22.5 mg/kg): 0%; mortality at 168 h ([1]; bithionol sulfoxide 600 mg/kg oral, Group II with diphenylamine 30 mg/kg): 10%; mortality at 168 h ([1]; bithionol sulfoxide 800 mg/kg oral, Group II with diphenylamine 40 mg/kg): 20%; mortality at 168 h ([1]; bithionol sulfoxide 1066 mg/kg oral, Group II with diphenylamine 53 mg/kg): 40%; mortality at 168 h ([1]; bithionol sulfoxide 1420 mg/kg oral, Group II with diphenylamine 71 mg/kg): 30%

Which results are given for `ClC(Cl)(Cl)Cl` [CCl4, carbon tetrachloride]?
Percent S.G.O.T. increase ([2]; vs level prior to intoxication, Group II with diphenylamine 100 mg/kg simultaneously): 91%; Sleeping time (liver): 109 mn

Which “Number of sheep killed” value (sheep; hexachlorophene 135 mg/kg oral, diphenylamine 0 or 1.58 mg/kg) does the source give for `Oc1c(Cl)cc(Cl)c(Cl)c1Cc1c(O)c(Cl)cc(Cl)c1Cl` [hexachlorophene] here?
The value was 1.

And the “Number of sheep killed” value (sheep; hexachlorophene 142.5 mg/kg oral, diphenylamine 0 or 1.67 mg/kg)?
The value was 4.

And the “Number of sheep killed” value (sheep; hexachlorophene 150 mg/kg oral, diphenylamine 0 or 1.76 mg/kg)?
Its value is 5.

And the mortality at 168 h ([3]; hexachlorophene 109.6 mg/kg oral)?
The mortality at 168 h was 10%.

What about the mortality at 168 h ([3]; hexachlorophene 128.2 mg/kg oral) of the same compound?
Its mortality at 168 h is 20%.

What about the mortality at 168 h ([3]; hexachlorophene 150 mg/kg oral) of the same compound?
Its mortality at 168 h is 20%.

And the mortality at 168 h ([3]; hexachlorophene 175.5 mg/kg oral)?
Its mortality at 168 h is 40%.

What about the mortality at 168 h ([3]; hexachlorophene 205.3 mg/kg oral) of the same compound?
Its mortality at 168 h is 60%.

And the convulsions (Limousin ewes; hexachlorophene 90 mg/kg oral, 5 days, one animal of the group)?
The convulsions was “in one animal of the group, convulsions were observed”.

And the clinical signs (Limousin ewes; [8])?
Its clinical signs is “a sustained state of exhaustion was noted in the animals throughout the observation period”.

What about the “loss of weight (in words)” value (Limousin ewes; [8]) of the same compound?
Its value is “General loss of weight was noted”.

And the “decrease of the weight within five days” value (Limousin ewes; hexachlorophene 90 mg/kg oral, unprotected group)?
The value was 14.38%.

And the average weight (Limousin ewes; hexachlorophene 90 mg/kg oral, unprotected after five days (48.6 kg before), protected with diphenylamine 2 mg/kg, remained stable)?
The average weight was 41.66 kg.

Which results are given for `c1ccc(Nc2ccccc2)cc1` [diphenylamine]?
anticonvulsant activity [4]: anticonvulsant activity; action against certain myases (myases): action against certain myases; S.G.O.T. level increase (in words) ([2]; diphenylamine 100 mg/kg): S.G.O.T. level increases in a significantly reduced manner; death rate (in words) (sheep; hexachlorophene 135-142.5-150 mg/kg oral, sheep): significant decrease of the death rate; antiparasitic activity [5]: antiparasitic activity; action against certain Nematodes (Nematodes): against certain Nematodes in dogs; bithionol sulfoxide-induced acute toxicity (mice [6]): reduces the bithionol sulfoxide-induced acute toxicity in mice; hexachlorophene-induced acute toxicity (mice [7]): reduces the hexachlorophene-induced acute toxicity in mice; weight stabilization and reduction of the clinical signs (Limousin ewes; hexachlorophene 90 mg/kg, diphenylamine 2 mg/kg, oral, conclusion in words): weight stabilization and the most substantial reduction of the clinical signs
